In general, MIC refers to the lowest concentration found to suppress growth. Read a high MIC as a need for much substance.

Here are results for three compounds from US20160243164A1, “ANTIMICROBIAL SILVER HYDROGEL COMPOSITION FOR THE TREATMENT OF BURNS AND WOUNDS” (CELACARE TECHNOLOGIES, LLC, priority 2011, published 2016).

For series [1] the following is noted: topical exposure for 4 hours; cited from earlier work.
Series [2] has as its system Candida albicans ATCC 10231. Nature of the series: microtube dilution MIC. To be noted: ATCC10231, Example 9, 48 hrs incubation. It is filed as cell-based.
Description: (§1) In brief, a standard inoculum (100 μL of a 1:200 dilution of a 0.5 MacFarland turbidity standard) of each microorganism was prepared in standard growth media and added to equal volumes of two-fold serial dilutions of SC and SC-Gel. MICs were determined visually as the highest dilution of SC, or SC-Gel, that inhibited growth after incubating the mixtures overnight at 35° C., except for Candida albicans, which required 48 hrs incubation. […] The MIC dilution was converted to μg/mL by multiplying the neat drug (Ag^+) concentration by the dilution appropriate dilution factor.
In brief, a standard inoculum (100 μL of a 1:200 dilution of a 0.5 MacFarland turbidity standard) of each microorganism was prepared in standard growth media and added to equal volumes of two-fold serial dilutions of SC and SC-Gel. MICs were determined visually as the highest dilution of SC, or SC-Gel, that inhibited growth after incubating the mixtures overnight at 35° C., except for C. albicans, which required 48 hrs incubation. […] The MIC dilution was converted to μg/mL by multiplying the neat drug (Ag^+) concentration by the dilution appropriate dilution factor.
Series [3] relates to Escherichia coli ATCC 25922. Nature of the series: microtube dilution MIC. The note with it: Example 13; E. coli ATCC 25922. It is filed as cell-based.
Description: as §1
The method described in Example 8 for minimum inhibitory concentration (MIC) was utilized for evaluation of activity of the compositions against Staphylococcus aureus and Streptococcus pyogenes (Gram-positive cocci) and Pseudomonas aeruginosa and Escherichia coli (Gram-negative rod) organisms.
In series [4] the test system is Pseudomonas aeruginosa ATCC 27853. Nature of the series: microtube dilution MIC. It is filed as cell-based. To be noted: Example 13; P. aeruginosa ATCC 27853.
Description: as §1
In brief, a standard inoculum (100 μL of a 1:200 dilution of a 0.5 MacFarland turbidity standard) of each microorganism was prepared in standard growth media and added to equal volumes of two-fold serial dilutions of SC and SC-Gel. MICs were determined visually as the highest dilution of SC, or SC-Gel, that inhibited growth after incubating the mixtures overnight at 35° C., except for C. albicans, which required 48 hrs incubation. […] The MIC dilution was converted to μg/mL by multiplying the neat drug (Ag^+) concentration by the dilution appropriate dilution factor. […]

SMILES strings stand for the structures. In brackets after ≈: the same amount, converted by molar mass.

`O=C(O)CN(CCN(CC(=O)O)CC(=O)O)CC(=O)O.[Na].[Na]` [Disodium EDTA, disodium ethylenediaminetetraacetic acid]: the “reactivity in human patch test” value in series [1] is given as “no reactivity”.

Regarding `Clc1ccc(COC(Cn2ccnc2)c2ccc(Cl)cc2Cl)c(Cl)c1` (stereo not shown) [MZL, Miconazole], inhibition of growth in series [2] (MIC) required 0.49 µg/mL (≈ 1.18 µM).

Take `O=C([O-])CC(O)(CC(=O)[O-])C(=O)[O-].[Ag+].[Ag+].[Ag+]` [SC Liquid, silver citrate]: the entries for the “Minimal Inhibitory Concentration (MIC)” value in series [3] and in series [4] were 7.5 µg/mL and 11.25 µg/mL, respectively.
